Data published in article PMC9929232, “On-demand male contraception via acute inhibition of soluble adenylyl cyclase” (Nature Communications, 2023).

How the values were obtained:
[1] = TDI-11155 blood concentration during osmotic minipump delivery; assay type: in vivo, mouse
Procedure: (§1) At defined time points (15 min to 24 hours post-injection), 10 μl tail blood was progressively collected from the same males, mixed with 20 μl 15 mM EDTA, frozen in liquid nitrogen, and stored at −80 °C until analysis. Liver, kidney, eye, testis, caput and cauda epididymis, and seminal vesicle were collected, weighed, and homogenized in a threefold volume of 1:1 EtOH/H2O (v/v). […] Mice anesthetized with ketamine/xylazine were shaved and residual hair was removed with hair removal cream. A small incision was made with a scalpel, a hemostat was used to create a pump-size pocket under the skin, and the pump was inserted with the pump opening facing away from the incision. After the wound was closed, mice were treated with meloxicam for pain relief. For 7 or 42 days post-surgery, tail blood was collected at regular intervals.

[2] = test system: testis, epididymis, kidneys, eyes, liver, spleen, pancreas; conditions: mouse, in vivo
Procedure: as §1
Blinded histopathological evaluation of indicated organs (testis, epididymis, kidneys, eyes, liver, spleen, and pancreas) was performed by a board-certified comparative pathologist at the WCM Laboratory of Comparative Pathology. […] Organs were fixed in 10% neutral buffered formalin followed by embedding into paraffin. Sections were cut followed by staining with hematoxylin and eosin (H&E) for microscopic evaluation.

[3] = target: T1, sAC-overexpressing rat 4-4 cells (Rattus norvegicus, UniProt Q9Z286); parameters: method as in PMID 36246105; conditions: read-out: IC50 in cellular assays; cited from earlier work
T1 construct: expressed in transfected cells
T1 sequence (Q9Z286 1-469 limits assumed): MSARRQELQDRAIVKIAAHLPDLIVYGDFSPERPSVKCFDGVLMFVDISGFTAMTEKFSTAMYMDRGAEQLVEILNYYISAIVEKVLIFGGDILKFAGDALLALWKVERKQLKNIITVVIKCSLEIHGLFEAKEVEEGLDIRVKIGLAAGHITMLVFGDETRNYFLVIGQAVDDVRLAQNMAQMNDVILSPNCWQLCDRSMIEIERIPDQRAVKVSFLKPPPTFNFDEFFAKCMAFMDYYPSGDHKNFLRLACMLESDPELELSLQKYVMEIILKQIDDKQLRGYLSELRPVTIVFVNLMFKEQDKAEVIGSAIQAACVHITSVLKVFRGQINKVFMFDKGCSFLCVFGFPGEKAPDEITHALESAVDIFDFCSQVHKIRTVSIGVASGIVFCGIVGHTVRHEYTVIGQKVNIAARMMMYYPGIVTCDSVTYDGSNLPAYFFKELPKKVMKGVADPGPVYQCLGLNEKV

Cn1cc(Cc2ccccc2OCCN2CCOCC2)c(-c2cc(Cl)nc(N)n2)n1 [TDI-11155]
delivered level relative to cellular IC50 ([1]; 7 days): 15 fold | delivered level relative to cellular IC50 ([1]; 42 days): threefold | Epididymis: Epithelial karyomegaly [2]: 2, MF | Epididymis: Exfoliated germ cells [2]: 1, MF | Eyes [2]: N | Kidneys: Lymphoplasmacytic and histiocytic infiltrates, pelvic [2]: 1, MF | Kidneys: Tubular basophilia, cortical [2]: 1, F | Kidneys: Tubular mineralization, papillary [2]: 1, F | Liver: Extramedullary hematopoiesis, random [2]: 1, MF | Liver: Lymphoplasmacytic, histiocytic, and neutrophilic hepatitis, midzonal [2]: 1, F | Liver: Lymphoplasmacytic, histiocytic, and neutrophilic hepatitis, periportal [2]: 2, F | Pancreas [2]: N | Spleen [2]: N | behavioral effects during treatment [2]: no observed behavioral effects | gross abnormalities in major organs at study termination [2]: no gross abnormalities | salt precipitation in kidneys [2]: no signs of salt precipitation | IC50 [3]: 16 nM
